Reference: US9359297B2, “Spirolactam derivatives and uses of same” (H. Lundbeck A/S, priority 2009, dated 2016)

Target: T1, human metabotropic glutamate receptor 5 (hmGluR5) (Homo sapiens, UniProt P41594)
T1 construct: expressed in transfected cells
Assay: Calcium mobilization (FLIPR) assay for negative allosteric modulation, EC80 glutamate, hmGluR5 in HEK 293
Assay type: cell-based
Details: HEK293; hmGluR5, inhibition of EC80 glutamate response; read-out: FLIPR maximum inhibition
Procedure: The cDNA for rat metabotropic glutamate receptor 5 (rmGluR5) and the cDNA for human metabotropic glutamate receptor 5 (hmGluR5) were generous gifts from S. Nakanishi (Kyoto University, Kyoto, Japan). The rmGluR5 or hmGluR5 was stably expressed in a HEK 293 cell line and grown in Dulbecco's Modified Eagle Medium (DMEM) (Invitrogen, Carlsbad, Calif.) with supplements (10% bovine calf serum, 4 mM glutamine, 100 units/mL penicillin, 100 μg/mL streptomycin and 0.75 mM G1418) at 37° C., 5% CO2. Twenty-four hours prior to assay, cells were seeded into 384-well black wall microtiter plates coated with poly-D-lysine. Just prior to assay, media was aspirated and cells dye-loaded (25 μL/well) with 3 μM Fluo-4/0.01% pluronic acid in assay buffer (Hank's Balanced Saline Solution (HBSS)): 150 mM NaCl, 5 mM KCl, 1 mM CaCl2, 1 mM MgCl2, plus 20 mM N-2-Hydroxyethylpiperazine-N′-2-ethanesulfonic acid (HEPES), pH 7.4, 0.1% bovine serum albumin (BSA) and 2.5 mM probenicid) for 1 hour in 5% CO2 at 37° C. After excess dye was discarded, cells were washed in assay buffer and layered with a final volume equal to 30 μL/well. Basal fluorescence is monitored in a fluorometric imaging plate reader (FLIPR) (Molecular Devices, Sunnyvale, Calif.) with an excitation wavelength of 488 nm and an emission range of 500 to 560 nm. Laser excitation energy was adjusted so that basal fluorescence readings were approximately 10,000 relative fluorescent units. Cells were stimulated with an EC20 or an EC80 concentration of glutamate in the presence of a compound to be tested, both diluted in assay buffer, and relative fluorescent units were measured at defined intervals (exposure=0.6 sec) over a 3 min period at room temperature. Basal readings derived from negative controls were subtracted from all samples. Maximum change in fluorescence was calculated for each well. Concentration-response curves derived from the maximum change in fluorescence were analyzed by nonlinear regression (Hill equation). A negative modulator can be identified from these concentration-response curves if a compound produces a concentration dependent inhibition of the EC80 glutamate response.

T1 sequence (P41594 21-1212): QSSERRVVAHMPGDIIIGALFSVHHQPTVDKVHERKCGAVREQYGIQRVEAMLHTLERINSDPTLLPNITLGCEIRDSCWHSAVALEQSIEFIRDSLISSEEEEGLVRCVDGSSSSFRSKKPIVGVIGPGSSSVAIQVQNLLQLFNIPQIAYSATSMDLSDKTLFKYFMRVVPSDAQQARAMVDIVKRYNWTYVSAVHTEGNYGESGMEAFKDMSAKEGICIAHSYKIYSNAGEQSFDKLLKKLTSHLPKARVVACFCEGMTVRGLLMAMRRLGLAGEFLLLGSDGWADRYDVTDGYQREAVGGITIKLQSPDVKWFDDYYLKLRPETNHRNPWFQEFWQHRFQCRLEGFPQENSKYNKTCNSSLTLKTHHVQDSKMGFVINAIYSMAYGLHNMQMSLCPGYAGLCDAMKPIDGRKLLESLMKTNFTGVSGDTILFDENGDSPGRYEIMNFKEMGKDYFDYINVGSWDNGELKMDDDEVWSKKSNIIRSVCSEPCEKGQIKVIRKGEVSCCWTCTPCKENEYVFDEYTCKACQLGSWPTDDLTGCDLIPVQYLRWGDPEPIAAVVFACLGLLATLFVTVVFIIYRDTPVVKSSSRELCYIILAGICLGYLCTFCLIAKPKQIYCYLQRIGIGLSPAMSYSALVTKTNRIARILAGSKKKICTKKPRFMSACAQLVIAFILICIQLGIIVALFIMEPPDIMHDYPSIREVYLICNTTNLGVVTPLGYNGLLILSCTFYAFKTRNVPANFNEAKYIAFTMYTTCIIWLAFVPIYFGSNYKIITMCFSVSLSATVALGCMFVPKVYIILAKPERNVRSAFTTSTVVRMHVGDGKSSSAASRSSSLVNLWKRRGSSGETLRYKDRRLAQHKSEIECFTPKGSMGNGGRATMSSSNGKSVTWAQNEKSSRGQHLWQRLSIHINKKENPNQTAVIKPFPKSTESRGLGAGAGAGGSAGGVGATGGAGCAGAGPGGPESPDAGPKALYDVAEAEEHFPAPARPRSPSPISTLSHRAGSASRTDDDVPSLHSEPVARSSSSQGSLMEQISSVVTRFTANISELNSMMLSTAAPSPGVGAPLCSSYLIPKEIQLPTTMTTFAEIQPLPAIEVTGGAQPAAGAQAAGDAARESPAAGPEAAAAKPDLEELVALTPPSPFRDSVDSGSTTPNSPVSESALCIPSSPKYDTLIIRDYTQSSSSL

| Emax [%] | SMILES |
| --- | --- |
| 73 to 95 | Cc1cccc(C(=O)N[C@H]2CCC[C@]3(CCN(c4cc(-c5ccc(F)cc5)ncn4)C3=O)C2)n1 (relative stereo) [Example 87, cis-6-Methyl-pyridine-2-carboxylic acid {2-[6-(4-fluoro-phenyl)-pyrimidin-4-yl]-1-oxo-2-aza-spiro [4.5]dec-7-yl}-amide] |
| 73 to 95 | O=C(N[C@H]1CCC[C@]2(CCN(c3cc(-c4ccc(F)cc4)ncn3)C2=O)C1)c1cccc(F)c1 (relative stereo) [Example 88, cis-3-Fluoro-N-{2-[6-(4-fluoro-phenyl)-pyrimidin-4-yl]-1-oxo-2-aza-spiro[4.5]dec-7-yl}-benzamide] |
| 73 to 95 | Cc1nccc(N2CC[C@]3(CCC[C@H](NC(=O)c4ccc(F)cc4)C3)C2=O)n1 (relative stereo) [Example 89, cis-4-Fluoro-N-[2-(2-methyl-pyrimidin-4-yl)-1-oxo-2-aza-spiro [4.5]dec-7-yl]-benzamide] |
| 73 to 95 | Cc1nccc(N2CC[C@]3(CCC[C@H](NC(=O)c4ccc(F)c(F)c4)C3)C2=O)n1 (relative stereo) [Example 90, cis-3,4-Difluoro-N-[2-(2-methyl-pyrimidin-4-yl)-1-oxo-2-aza-spiro [4.5]dec-7-yl]-benzamide] |
| 73 to 95 | Cc1nccc(N2CC[C@]3(CCC[C@H](NC(=O)c4ccccc4F)C3)C2=O)n1 (relative stereo) [Example 91, cis-2-Fluoro-N-[2-(2-methyl-pyrimidin-4-yl)-1-oxo-2-aza-spiro [4.5]dec-7-yl]-benzamide] |
| 73 to 95 | Cc1cc(C(=O)N[C@H]2CCC[C@]3(CCN(c4ccnc(C)n4)C3=O)C2)ccn1 (relative stereo) [Example 92, cis-2-Methyl-N-[2-(2-methyl-pyrimidin-4-yl)-1-oxo-2-aza-spiro [4.5]dec-7-yl]-isonicotinamide] |
| 73 to 95 | O=C(N[C@H]1CCC[C@]2(CCN(c3cccc(F)c3)C2=O)C1)c1cccc(CO)n1 (relative stereo) [Example 93, cis-6-Hydroxymethyl-pyridine-2-carboxylic acid [2-(3-fluoro-phenyl)-1-oxo-2-aza-spiro[4.5]dec-7-yl]-amide] |
| 73 to 95 | O=C(N[C@H]1CCC[C@]2(CCN(c3cccc(F)c3)C2=O)C1)c1cccc(C(F)(F)F)n1 (relative stereo) [Example 94, cis-6-Trifluoromethyl-pyridine-2-carboxylic acid [2-(3-fluoro-phenyl)-1-oxo-2-aza-spiro[4.5]dec-7-yl]-amide] |
| 73 to 95 | Cc1nccc(N2CC[C@]3(CCC[C@H](NC(=O)c4cccc(C(F)(F)F)n4)C3)C2=O)n1 (relative stereo) [Example 96, cis-6-Trifluoromethyl-pyridine-2-carboxylic acid [2-(2-methyl-pyrimidin-4-yl)-1-oxo-2-aza-spiro [4.5]dec-7-yl]-amide] |
| 47 to 93 | Cc1nccc(C(=O)N[C@@H]2CC(F)(F)C[C@]3(CCN(c4cc(F)cc(F)c4)C3=O)C2)n1 (relative stereo) [Example 105, trans-2-Methyl-pyrimidine-4-carboxylic acid [2-(3,5-difluoro-phenyl)-9,9-difluoro-1-oxo-2-aza-spiro[4.5]dec-7-yl]-amide] |
| 47 to 93 | O=C(N[C@@H]1CC(F)(F)C[C@@]2(CCN(c3ccc(F)cc3)C2=O)C1)c1ccccn1 (relative stereo) [Example 106, cis-Pyridine-2-carboxylic acid [9,9-difluoro-2-(4-fluoro-phenyl)-1-oxo-2-aza-spiro[4.5]dec-7-yl]-amide] |
| 47 to 93 | Cc1cccc(C(=O)N[C@@H]2CC(F)(F)C[C@@]3(CCN(c4cccc(F)c4)C3=O)C2)n1 (relative stereo) [Example 107, cis-6-Methyl-pyridine-2-carboxylic acid [9,9-difluoro-2-(3-fluoro-phenyl)-1-oxo-2-aza-spiro[4.5]dec-7-yl]-amide] |
